Measurements from ChEMBL document CHEMBL3352553, “Discovery of (E)-5-(benzylideneamino)-1H-benzo[d]imidazol-2(3H)-one derivatives as inhibitors for PTK6” (Bioorg Med Chem Lett, 2014).

Assays:
[1] = molecular target: T1, Protein-tyrosine kinase 6 (Homo sapiens, UniProt Q13882); assay: Inhibition of PTK6 (unknown origin) expressed in HEK293 cells assessed as decrease in tyrosine phosphorylation by chemiluminescence assay; format: cell-based
[2] = molecular target: T1, Protein-tyrosine kinase 6; assay: Inhibition of GST-tagged PTK6 (unknown origin) assessed as phosphorylated tyrosines after 20 mins by ELISA
[3] = molecular target: Epidermal growth factor receptor (Homo sapiens, UniProt P00533)
Epidermal growth factor receptor, sequence (P00533 whole entry): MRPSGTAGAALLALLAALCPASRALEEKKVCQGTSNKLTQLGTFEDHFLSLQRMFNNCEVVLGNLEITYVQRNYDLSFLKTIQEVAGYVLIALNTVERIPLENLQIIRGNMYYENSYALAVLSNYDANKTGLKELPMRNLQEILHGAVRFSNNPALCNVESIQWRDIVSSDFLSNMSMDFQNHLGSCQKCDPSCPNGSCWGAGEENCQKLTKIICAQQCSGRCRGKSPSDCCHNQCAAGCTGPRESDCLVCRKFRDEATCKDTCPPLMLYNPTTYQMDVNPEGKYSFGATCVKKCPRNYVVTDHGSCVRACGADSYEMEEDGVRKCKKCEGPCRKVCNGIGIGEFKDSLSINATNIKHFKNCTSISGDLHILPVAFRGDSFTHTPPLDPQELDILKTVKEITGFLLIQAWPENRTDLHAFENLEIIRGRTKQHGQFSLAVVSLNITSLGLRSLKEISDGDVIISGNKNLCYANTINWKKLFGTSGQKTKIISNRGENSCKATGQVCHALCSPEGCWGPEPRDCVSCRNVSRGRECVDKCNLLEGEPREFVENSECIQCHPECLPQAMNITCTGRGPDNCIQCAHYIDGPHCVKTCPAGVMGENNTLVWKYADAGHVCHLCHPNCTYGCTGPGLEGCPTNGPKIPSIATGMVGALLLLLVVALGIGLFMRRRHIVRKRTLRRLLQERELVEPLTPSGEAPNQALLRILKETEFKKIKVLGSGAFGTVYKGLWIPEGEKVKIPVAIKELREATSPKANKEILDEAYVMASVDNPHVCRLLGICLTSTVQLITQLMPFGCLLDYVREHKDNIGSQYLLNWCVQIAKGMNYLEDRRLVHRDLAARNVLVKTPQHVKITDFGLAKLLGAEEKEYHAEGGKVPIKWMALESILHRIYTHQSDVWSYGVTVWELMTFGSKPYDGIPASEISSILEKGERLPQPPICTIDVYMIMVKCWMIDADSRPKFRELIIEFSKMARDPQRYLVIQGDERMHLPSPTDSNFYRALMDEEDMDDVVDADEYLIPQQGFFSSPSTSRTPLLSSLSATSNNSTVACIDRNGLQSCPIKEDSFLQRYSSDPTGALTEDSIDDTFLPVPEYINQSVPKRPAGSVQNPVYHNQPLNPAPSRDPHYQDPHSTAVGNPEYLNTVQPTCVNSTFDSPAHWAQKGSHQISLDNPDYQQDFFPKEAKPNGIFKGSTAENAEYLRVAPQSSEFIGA
Description: Inhibition of EGFR (unknown origin) expressed in HEK293 cells assessed as decrease in phosphorylation by chemiluminescence assay

[4] = molecular target: Tyrosine-protein kinase Fyn (Homo sapiens, UniProt P06241); assay: Inhibition of Fyn (unknown origin) expressed in HEK293 cells assessed as decrease in phosphorylation by chemiluminescence assay; format: cell-based
Tyrosine-protein kinase Fyn, sequence (P06241 whole entry): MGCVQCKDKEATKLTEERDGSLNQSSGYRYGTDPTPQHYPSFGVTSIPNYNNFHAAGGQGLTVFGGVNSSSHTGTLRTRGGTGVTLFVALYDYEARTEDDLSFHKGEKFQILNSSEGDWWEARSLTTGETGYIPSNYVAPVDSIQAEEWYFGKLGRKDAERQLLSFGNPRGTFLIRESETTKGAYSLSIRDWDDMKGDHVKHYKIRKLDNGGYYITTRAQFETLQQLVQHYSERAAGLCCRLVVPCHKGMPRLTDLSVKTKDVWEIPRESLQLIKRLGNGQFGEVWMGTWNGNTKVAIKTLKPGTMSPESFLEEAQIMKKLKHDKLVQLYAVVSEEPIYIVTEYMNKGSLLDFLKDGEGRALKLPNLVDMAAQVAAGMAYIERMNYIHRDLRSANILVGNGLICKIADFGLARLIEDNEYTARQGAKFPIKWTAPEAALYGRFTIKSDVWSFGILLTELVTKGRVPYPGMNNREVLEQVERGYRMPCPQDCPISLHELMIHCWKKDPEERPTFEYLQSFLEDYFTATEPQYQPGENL

[5] = molecular target: Proto-oncogene tyrosine-protein kinase Src (Homo sapiens, UniProt P12931); assay: Inhibition of Src (unknown origin) expressed in HEK293 cells assessed as decrease in phosphorylation by chemiluminescence assay; format: cell-based
Proto-oncogene tyrosine-protein kinase Src, sequence (P12931 2-536 limits assumed): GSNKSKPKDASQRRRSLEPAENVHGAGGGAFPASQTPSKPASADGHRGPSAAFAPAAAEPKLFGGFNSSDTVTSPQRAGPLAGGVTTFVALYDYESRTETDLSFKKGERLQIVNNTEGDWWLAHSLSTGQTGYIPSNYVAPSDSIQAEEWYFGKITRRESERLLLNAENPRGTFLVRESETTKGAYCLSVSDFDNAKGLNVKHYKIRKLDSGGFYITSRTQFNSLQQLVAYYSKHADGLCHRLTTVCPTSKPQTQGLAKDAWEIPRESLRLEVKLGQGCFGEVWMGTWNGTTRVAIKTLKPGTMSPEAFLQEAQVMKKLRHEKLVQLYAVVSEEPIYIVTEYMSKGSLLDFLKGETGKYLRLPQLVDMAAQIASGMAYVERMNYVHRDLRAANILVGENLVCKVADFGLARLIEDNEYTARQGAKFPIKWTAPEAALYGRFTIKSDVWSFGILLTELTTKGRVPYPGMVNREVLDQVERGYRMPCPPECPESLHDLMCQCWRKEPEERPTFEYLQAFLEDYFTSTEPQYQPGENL

[6] = molecular target: T2, Cytoplasmic tyrosine-protein kinase BMX (Homo sapiens, UniProt P51813); assay: Inhibition of Bmx (unknown origin) expressed in HEK293 cells assessed as decrease in phosphorylation by chemiluminescence assay; format: cell-based
T2 sequence (P51813 whole entry): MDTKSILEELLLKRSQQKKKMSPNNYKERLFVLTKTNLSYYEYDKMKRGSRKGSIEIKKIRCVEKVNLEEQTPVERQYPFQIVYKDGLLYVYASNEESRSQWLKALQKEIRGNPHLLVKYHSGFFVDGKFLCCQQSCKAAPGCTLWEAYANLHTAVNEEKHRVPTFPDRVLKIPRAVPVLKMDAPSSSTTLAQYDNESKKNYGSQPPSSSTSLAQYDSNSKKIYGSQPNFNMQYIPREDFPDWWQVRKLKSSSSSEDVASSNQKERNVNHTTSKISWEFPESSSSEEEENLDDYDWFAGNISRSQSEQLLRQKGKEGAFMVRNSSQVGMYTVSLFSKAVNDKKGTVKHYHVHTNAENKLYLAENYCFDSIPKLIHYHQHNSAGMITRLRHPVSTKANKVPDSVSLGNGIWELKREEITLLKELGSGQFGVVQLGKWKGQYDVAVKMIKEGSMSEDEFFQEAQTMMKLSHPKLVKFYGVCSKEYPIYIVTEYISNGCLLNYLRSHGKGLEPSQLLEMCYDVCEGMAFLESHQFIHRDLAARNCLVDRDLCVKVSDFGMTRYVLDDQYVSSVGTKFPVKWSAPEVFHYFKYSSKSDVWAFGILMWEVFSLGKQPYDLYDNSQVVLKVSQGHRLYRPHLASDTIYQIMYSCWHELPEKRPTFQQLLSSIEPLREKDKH

HFF [7] = assay: Cytotoxicity against human foreskin fibroblast up to 100 uM after 24 hrs by MTT assay; format: cell-based
HFF [8] = assay: Cytotoxicity against human foreskin fibroblast after 24 hrs by MTT assay; format: cell-based

T1 sequence (Q13882 whole entry): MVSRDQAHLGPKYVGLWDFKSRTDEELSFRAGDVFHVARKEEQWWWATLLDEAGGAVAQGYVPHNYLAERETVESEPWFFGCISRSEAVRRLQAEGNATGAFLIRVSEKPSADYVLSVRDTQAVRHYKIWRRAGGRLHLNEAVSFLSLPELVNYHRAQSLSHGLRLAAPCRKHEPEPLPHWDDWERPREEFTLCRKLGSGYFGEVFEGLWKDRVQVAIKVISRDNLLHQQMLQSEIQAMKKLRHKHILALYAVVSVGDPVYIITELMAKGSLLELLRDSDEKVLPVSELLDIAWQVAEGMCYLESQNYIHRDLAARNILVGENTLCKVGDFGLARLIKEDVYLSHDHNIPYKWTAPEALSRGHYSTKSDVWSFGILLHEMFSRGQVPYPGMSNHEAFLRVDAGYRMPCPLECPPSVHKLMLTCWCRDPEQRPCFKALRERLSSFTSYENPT

SMILES	IC50 [1] [µM]	IC50 [2] [µM]	also measured
COc1cc(Br)cc(/C=N/c2ccc3[nH]c(=O)[nH]c3c2)c1O	52.4	4.73	–
CCOc1cc(Br)c(Br)c(/C=N/c2ccc3[nH]cnc3c2)c1O	4.71	0.13	–
O=c1[nH]c2ccc(/N=C/c3cc(Cl)ccc3O)cc2[nH]1	> 100	1.41	–
O=c1[nH]c2ccc(/N=C/c3ccccc3O)cc2[nH]1	> 100	2	–
COc1cc(I)cc(/C=N/c2ccc3[nH]c(=O)[nH]c3c2)c1O	58.1	4.98	–
COc1cc(Br)c(Br)c(/C=N/c2ccc3scnc3c2)c1O	4.61	1.3	–
CCOc1cccc(/C=N/c2ccc3[nH]c(=O)[nH]c3c2)c1O	–	> 10	–
CCOc1cc(Br)c(Br)c(/C=N/c2ccc3[nH]c(=O)[nH]c3c2)c1O	1.6	0.52	IC50 [3]: 76.7 µM; IC50 [4]: 68.5 µM; IC50 [5]: > 100 µM; IC50 [6]: 42.3 µM; Activity (HFF [7]): Non-toxic
O=c1[nH]c2ccc(/N=C/c3cc(Br)ccc3O)cc2[nH]1	> 100	1.9	–
COc1cc(Br)c(Br)c(CNc2ccc3[nH]c(=O)[nH]c3c2)c1O	–	> 10	–
O=c1[nH]c2ccc(/N=C/c3c(O)c(Br)cc(Br)c3Br)cc2[nH]1	11.8	0.41	–
O=c1[nH]c2ccc(/N=C/c3c(O)cccc3Br)cc2[nH]1	24.5	1.35	–
O=c1[nH]c2ccc(/N=C/c3ccccc3)cc2[nH]1	–	> 10	–
O=c1[nH]c2ccc(/N=C/c3ccc(O)cc3O)cc2[nH]1	–	> 10	–
CCOc1cc(Cl)c(Cl)c(/C=N/c2ccc3[nH]c(=O)[nH]c3c2)c1O	3.48	1.29	–
COc1ccc(Br)c(/C=N/c2ccc3[nH]c(=O)[nH]c3c2)c1O	16.6	3.9	–

SMILES	IC50 [1] [µM]	IC50 [2] [µM]	also measured
COc1cc(Br)c(Br)c(/C=N/c2ccc3[nH]c(=O)[nH]c3c2)c1O	1.46	0.12	IC50 [3]: 88.7 µM; IC50 [4]: 38.7 µM; IC50 [5]: > 100 µM; IC50 [6]: 38.6 µM; Activity (HFF [8]): Toxic; Activity (HFF [7]): Toxic
O=c1[nH]c2ccc(/N=C/c3cc(Br)cc(Br)c3O)cc2[nH]1	49	5.6	–
COc1cc(Cl)cc(/C=N/c2ccc3[nH]c(=O)[nH]c3c2)c1O	74	1.68	–
CCOc1cc(Br)c(Br)c(/C=N/c2ccc3[nH]ccc3c2)c1O	7.58	0.36	–
COc1cc(Br)c(Br)c(/C=N/c2ccc3[nH]cnc3c2)c1O	5.52	0.2	–
COc1cc(Br)c(Br)c(/C=N/c2ccc3[nH]ccc3c2)c1O	3.49	0.27	–
CCOc1cc(Br)cc(/C=N/c2ccc3[nH]c(=O)[nH]c3c2)c1O	23.5	5.83	–
COc1cc(Br)cc(/C=N/c2ccc3[nH]c(=O)[nH]c3c2)c1OC	–	> 10	–
CCOc1cc(Br)c(Br)c(/C=N/c2ccc3scnc3c2)c1O	2.54	1.17	–
COc1cccc(/C=N/c2ccc3[nH]c(=O)[nH]c3c2)c1O	–	> 10	–
COc1ccc(/C=N/c2ccc3[nH]c(=O)[nH]c3c2)c(O)c1	–	> 10	–
N#C/C(=C\c1c[nH]c2ccccc12)C(=O)c1ccc(O)c(O)c1	53.2	2.32	–
CCOc1cc(Cl)cc(/C=N/c2ccc3[nH]c(=O)[nH]c3c2)c1O	51.2	1.99	–
COc1ccc(Br)cc1/C=N/c1ccc2[nH]c(=O)[nH]c2c1	> 100	17.1	–
CCOc1cc(Br)c(Br)c(CNc2ccc3[nH]c(=O)[nH]c3c2)c1O	–	4.79	–
O=c1c(-c2ccc(O)cc2)coc2cc(O)cc(O)c12 [GENISTEIN]	–	–	IC50 [4]: 58.2 µM; IC50 [5]: > 100 µM; IC50 [6]: 68 µM
